Measurements as given in PubChem BioAssay (NCI).
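Where inhibition never reached the appropriate level, the endpoint shown equals the highest concentration tested. Otherwise, values were interpolated linearly from a five-concentration, 48-hour dose response in 96-well plates. The concentration for 50% growth inhibition is given as GI50. At the TGI there is no net growth.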

Experiments:
Assay in all cases: inhibition of tumour cell growth, NCI panel, 48 h
SK-MEL-5 melanoma = system: SK-MEL-5 melanoma
EKVX NSCLC = system: EKVX NSCLC
SF-539 CNS = system: SF-539 CNS
OVCAR-4 ovarian = system: OVCAR-4 ovarian
HL-60(TB) leukemia = system: HL-60(TB) leukemia
ACHN renal = system: ACHN renal
UACC-257 melanoma = system: UACC-257 melanoma
786-0 renal = system: 786-0 renal
SN12C renal = system: SN12C renal
OVCAR-8 ovarian = system: OVCAR-8 ovarian

SMILES	TGI (SK-MEL-5 melanoma)	TGI (EKVX NSCLC)	TGI (SF-539 CNS)	TGI (OVCAR-4 ovarian)	TGI (HL-60(TB) leukemia)	TGI (ACHN renal)	TGI (UACC-257 melanoma)	TGI (786-0 renal)	TGI (SN12C renal)	GI50 (SK-MEL-5 melanoma)	GI50 (EKVX NSCLC)	GI50 (SF-539 CNS)	GI50 (HL-60(TB) leukemia)	GI50 (ACHN renal)	GI50 (UACC-257 melanoma)	GI50 (OVCAR-8 ovarian)	TGI (OVCAR-8 ovarian)	GI50 (786-0 renal)	GI50 (SN12C renal)	GI50 (OVCAR-4 ovarian)
COc1cc2c(cc1OC)C1(c3ccccc3)ON=C(c3ccccc3)N1CS2 (centres undefined)	> 100 µM	> 100 µM	> 100 µM	> 100 µM	> 100 µM	> 100 µM	> 100 µM	> 100 µM	> 100 µM											
Cc1nn(-c2ccccc2)c(C)c1/C=N/N1CCN(Cc2ccccc2)CC1	36.7 µM	> 100 µM	> 100 µM		63 µM	> 100 µM	> 100 µM	97.4 µM	> 100 µM	18.7 µM	> 100 µM	76.4 µM	28.7 µM	52.4 µM	63 µM	> 100 µM	> 100 µM	22.9 µM	> 100 µM	
CN1CCN(CCCOc2ccc3nc(Nc4ccc(C(F)(F)F)c(Cl)c4)ccc3c2)CC1	3.18 µM	3.63 µM		4.59 µM	4.01 µM	3.31 µM		3.21 µM		1.7 µM	1.74 µM		1.94 µM	1.74 µM		2.07 µM	4.64 µM	1.67 µM		1.71 µM
O=C(CC(=O)c1cccc([N+](=O)[O-])c1)C(=O)Nc1nc([N+](=O)[O-])cs1	> 100 µM	> 100 µM	> 100 µM	> 100 µM	> 100 µM		> 100 µM	> 100 µM	> 100 µM								> 100 µM			
CN1CCc2cc(O)c3cc2C1Cc1ccc(cc1)Oc1cc(ccc1O)CC1c2c(cc4c(c2O3)OCO4)CCN1C (centres undefined)	33.1 µM	70.7 µM	32.6 µM	88.6 µM	38.8 µM	> 100 µM		> 100 µM	> 100 µM								48.9 µM			
C[CH2][Sn]([Cl])([CH2]C)[CH2]C	2.26 µM	11.6 µM	2.91 µM	11 µM		8.27 µM	4.43 µM	3.63 µM	3.47 µM	0.761 µM	1.06 µM	1.01 µM		1.46 µM	1 µM	1.69 µM	4.35 µM	1.01 µM	0.841 µM	1.41 µM
N=C(N)c1ccc(-c2ccc(-c3ccc(Cl)c(Cl)c3)o2)nc1	3.15 µM	3.76 µM	3.04 µM		5.09 µM	3.22 µM		3.83 µM	3.52 µM	1.74 µM	1.86 µM	1.63 µM	2.24 µM	1.74 µM				1.99 µM	1.74 µM	
COc1ccc2c([nH]c3cc(O)c(C)cc32)c1CC=C(C)C	> 25 µM		> 25 µM	> 25 µM	> 25 µM	> 25 µM		8.61 µM	10.8 µM	8.04 µM		8.01 µM	7.94 µM	9.35 µM			10.4 µM	4.4 µM		
